Laboratory results as given in article PMC3242765, “Inhibitors of Alphavirus Entry and Replication Identified with a Stable Chikungunya Replicon Cell Line and Virus-Based Assays” (PLoS ONE, 2011).
Counter-ions that a name gives are not always drawn.

Experiments:
CHIKV replicon = experiment: microbe, parasite or virus in culture; format: cell-based, Chikungunya virus (CHIKV)

Molecule	CHIKV replicon % left (CHIKV replicon) [%]	SFV replication % left (surviving fraction, remaining percentage of SFV replication) (SFV-Rluc) [%]
Cn1c(=O)c2c(ncn2CC(O)CO)n(C)c1=O (centres unmarked) [7-(2,3-Dihydroxypropyl)theophylline]	54.3	100.1
CN1CCN(CCCN2c3ccccc3Sc3ccc(Cl)cc32)CC1 [Prochlorperazine]	71.9	51.4
C[C@@H]1O[C@@H](OC[C@H]2O[C@@H](Oc3c(-c4ccc(O)c(O)c4)oc4cc(O)cc(O)c4c3=O)[C@H](O)[C@@H](O)[C@@H]2O)[C@H](O)[C@H](O)[C@H]1O [Rutin]	49.5	44.1
CC(Cc1ccc(O)c(O)c1)C(C)Cc1ccc(O)c(O)c1 (centres unmarked) [Nordihydroguaiaretic acid]	28.3	35.6
COc1cnc(NS(=O)(=O)c2ccc(N)cc2)nc1 [Sulfameter]	79.2	99.0
Cc1ncc(C[n+]2csc(CCO)c2C)c(N)n1.O=[N+]([O-])[O-] [Thiamine mononitrate]	85.0	95.2
CCC(CN(C)C)(CN(C)C)OC(=O)c1ccccc1.Cl [Amydricaine hydrochloride]	74.3	43.4
OCc1ccccc1O[C@@H]1O[C@H](CO)[C@@H](O)[C@H](O)[C@H]1O [D(-)-Salicin]	99.4	104.4
CCCc1cc(=O)[nH]c(=S)[nH]1 [6-Propyl-2-thiouracil]	100.5	81.0
Oc1ccc(C(O)CNCCCCCCNCC(O)c2ccc(O)c(O)c2)cc1O (centres unmarked) [Hexoprenaline]	79.1	124.9
CCS(=O)(=O)C(C)(C)S(=O)(=O)CC [Sulfonmethane]	102.7	86.6
C[C@](N)(Cc1ccc(O)c(O)c1)C(=O)O [L-Methyldopa]	70.2	99.1
Cc1cc(C(C)(C)C)cc(C)c1CC1=NCCN1 [Xylometazoline]	78.2	94.2
CCCCOc1cc(C(=O)NCCN(CC)CC)c2ccccc2n1 [Dibucaine hydrochloride]	100.5	77.8
O=C(O)c1cc(O)cc(O)c1 [3,5-Dihydroxybenzoic acid]	87.8	6.9
NC(=O)c1ccccc1O [Salicylamide]	38.2	126.2
O=C(O)[C@]1(O)C[C@@H](O)[C@@H](O)[C@H](O)C1 [(-)-Quinic acid]	106.9	98.2
CCCCCCCCCCCCOC(=O)c1cc(O)c(O)c(O)c1 [Lauryl gallate]	6.1	12.3
O=c1cc(-c2ccc(O)c(O)c2)oc2cc(O)cc(O)c12 [Luteolin]	95.0	71.3
Saccharin sodium	81.5	105.0
CN[C@H](C)[C@@H](O)c1ccc(O)cc1 [p-Hydroxyephedrine]	100.6	94.4
CCCCC1C(=O)N(c2ccccc2)N(c2ccc(O)cc2)C1=O (centres unmarked) [Oxyphenbutazone]	100.4	84.8
CN1C(=O)C(O)N=C(c2ccccc2)c2cc(Cl)ccc21 (centres unmarked) [Temazepam]	79.5	91.5
CCC(NC(C)C)C(O)c1ccc(O)c(O)c1 (centres unmarked) [Isoetharine]	100.4	90.7
CCOc1ccc(NC(N)=O)cc1 [Dulcin [p-phenetylurea]]	70.2	103.3

Molecule	CHIKV replicon % left (CHIKV replicon) [%]	SFV replication % left (surviving fraction, remaining percentage of SFV replication) (SFV-Rluc) [%]
CCC(C)NCC(O)c1ccc2c(c1)CCCC2 (centres unmarked) [Butidrine]	89.2	73.1
CNC1=Nc2ccc(Cl)cc2C(c2ccccc2)=[N+]([O-])C1 [Chlordiazepoxide]	100.6	54.3
Cc1ncc([N+](=O)[O-])n1CCO [Metronidazole]	89.2	69.2
CCn1cc(C(=O)O)c(=O)c2ccc(C)nc21 [Nalidixic acid]	100.4	80.4
O=C1c2c(O)cc(O)cc2O[C@H](c2ccc(O)c(O)c2)[C@H]1O [(+)-Taxifolin]	105.4	93.7
Oc1ccc(O)cc1 [Hydroquinone]	72.9	16.9
O=C(c1ccccc1)c1cc2c(ccc3ccccc32)oc1=O [3-Benzoylbenzo(F)coumarin]	68.0	39.9
O=C(O)c1ccccc1 [Benzoic acid]	99.1	71.6
CCS(=O)(=O)CCn1c([N+](=O)[O-])cnc1C [Tinidazole]	100.5	104.1
Cc1cccc(C)c1NC(=O)C1CCCCN1C (centres unmarked) [Mepivacaine hydrochloride]	62.2	74.9
Cc1c(C)c2c(c(C)c1O)CCC(C)(C(=O)O)O2 (centres unmarked)	101.5	76.9
Cl.Cl.OCCN1CCN(CCC=C2c3ccccc3Sc3ccc(Cl)cc32)CC1 [Clopenthixol dihydrochloride]	40.1	55.2
C[C@H](CCC(=O)O)[C@H]1CC[C@H]2[C@@H]3CC[C@@H]4C[C@H](O)CC[C@]4(C)[C@H]3C[C@H](O)[C@]12C [Deoxycholic acid]	100.8	86.5
COc1ccc(NS(=O)(=O)c2ccc(N)cc2)nn1 [Sulfamethoxypyridazine]	82.0	110.0
C[C@]12C=CC(=O)C=C1CC[C@@H]1[C@@H]2[C@@H](O)C[C@@]2(C)[C@H]1CC[C@]2(O)C(=O)CO [Prednisolone]	84.3	104.2
CCOC(=O)c1ccc(N)cc1 [Benzocaine]	85.4	43.4
Cc1cc(NS(=O)(=O)c2ccc(N)cc2)no1 [Sulfamethoxazole]	100.5	77.5
Cc1c(C)c2c(c(C)c1OC(=O)CCC(=O)O)CC[C@@](C)(CCC[C@H](C)CCC[C@H](C)CCCC(C)C)O2 [(+)-a-Tocopherol acid succinate]	62.2	75.3
CN1C(=O)NC(=O)C(C)(C2=CCCCC2)C1=O (centres unmarked) [Hexobarbital]	98.2	121.3
Cc1c(Cl)cccc1Nc1ccccc1C(=O)O [Tolfenamic acid]	108.2	80.1
CN(Cc1cc(Br)cc(Br)c1N)C1CCCCC1 [Bromhexine hydrochloride]	82.8	64.8
CCCCNCC(O)c1ccc(O)cc1 (centres unmarked) [Bamethan]	96.9	67.1
COc1cc(C(=O)O)ccc1O [Vanillic acid]	44.3	53.4
COc1cc(C(=O)O)cc(OC)c1O [Syringic acid]	54.4	61.1
